Converted amounts (≈) assume the structure as drawn. “And” between values parts separate entries of the source, which are not always exact repeats. Equal values may be shown once.
Key:
U-937 cell line = experiment: CDDplus nucleosome ELISA test (apoptosis); format: cell-based; details: U-937, 1 nM–10 μM, 24 h of treatment
Experimental: Nuclear fragmentation is a late consequence of apoptotic processes. The changes which can be observed in this connection can be attributed to DNA strands being cleaved by endonucleases and the fragmentation into nucleosome particles which results therefrom.
For this, the effects of compounds 1 and 2 on the U-937 cell line were investigated at different concentrations (1 nM–10 μM; 24 h of treatment). (See FIG. 5 and FIG. 6).

[1] = Saturation solubility in water; format: physicochemical; details: thermodynamic from solid, maximum of 1% DMSO, HPLC-UV
Experimental: A maximum of 1% DMSO was added for the purpose of solubilizing the substances and improving the wetting of the samples. An HPLC-UV method was used for checking the content.

melanoma, MEXF-462 = experiment: Human xenograft model, melanoma MEXF-462; format: in vivo; details: for tolerability (in words): MEXF462 xenograft, p.o.
From the text: The in-vivo activity and tolerability of compound 2 according to the invention, as compared with those of substances 10 and 14, were examined in a human xenograft model (melanoma, MEXF-462).

mammary gland, MAXF857 = experiment: Human xenograft model, mammary gland MAXF857; format: in vivo
From the text: The in-vivo activity and tolerability of compound 2 according to the invention, as compared with those of substance 10, were examined in another human xenograft model (mammary gland, MAXF857).

bovine tubulin = bovine tubulin (Bos taurus, UniProt P81947+Q6B856); experiment: Inhibition of tubulin polymerization; format: biochemical; details: summary of Table 3
bovine tubulin, sequence (P81947 whole entry): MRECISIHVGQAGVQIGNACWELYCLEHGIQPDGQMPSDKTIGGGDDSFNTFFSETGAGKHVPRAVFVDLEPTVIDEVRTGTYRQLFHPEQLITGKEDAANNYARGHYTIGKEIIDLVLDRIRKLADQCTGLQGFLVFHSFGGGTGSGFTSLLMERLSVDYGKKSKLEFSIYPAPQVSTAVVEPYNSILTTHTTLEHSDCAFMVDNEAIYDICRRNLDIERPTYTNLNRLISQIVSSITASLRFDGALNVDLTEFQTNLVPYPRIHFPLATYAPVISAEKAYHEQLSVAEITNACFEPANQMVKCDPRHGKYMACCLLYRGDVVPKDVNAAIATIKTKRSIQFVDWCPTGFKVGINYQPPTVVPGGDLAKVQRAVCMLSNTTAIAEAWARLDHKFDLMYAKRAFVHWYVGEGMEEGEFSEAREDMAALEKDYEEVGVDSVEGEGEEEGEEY
bovine tubulin, sequence (Q6B856 whole entry): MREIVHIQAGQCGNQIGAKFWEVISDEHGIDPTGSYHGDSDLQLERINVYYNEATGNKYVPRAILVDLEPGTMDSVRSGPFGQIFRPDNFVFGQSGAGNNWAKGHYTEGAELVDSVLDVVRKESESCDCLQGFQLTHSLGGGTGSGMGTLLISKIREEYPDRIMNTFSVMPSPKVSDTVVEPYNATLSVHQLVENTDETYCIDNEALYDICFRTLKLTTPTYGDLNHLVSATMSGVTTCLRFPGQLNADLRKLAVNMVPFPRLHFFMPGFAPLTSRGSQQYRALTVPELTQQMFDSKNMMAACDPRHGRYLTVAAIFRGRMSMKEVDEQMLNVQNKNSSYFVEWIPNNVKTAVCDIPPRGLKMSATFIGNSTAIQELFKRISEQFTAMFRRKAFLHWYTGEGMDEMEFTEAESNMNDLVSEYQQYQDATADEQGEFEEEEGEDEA
Experimental: Substances 1, 4, 9, 11, 12, 13 and 15 were tested for their ability to inhibit the polymerization of bovine tubulin in an in-vitro test (D. M. Bollag et al. Cancer Res. 1995, 55, 2325–2333). This test uses-tubulin which has been purified by cycles of polymerization and depolymerization and which is caused to polymerize by adding GTP and heating it. Table 3 gives the EC50 values causing inhibition of the polymerization of tubulin containing 30% associated proteins (MPAs).

[2] = test system: acute myeloid leukemia cell line LT12; experiment: XTT proliferation assay, LT12; format: cell-based; details: Rattus norvegicus
From the text: (§1) For further characterization, substances 1, 2, 4 and 11 were investigated with regard to their effect on mulitdrug-resistance cell lines as compared with that on nonresistant wild-type cell lines.
(§2) The cell lines which were investigated are the murine cell line L1210, the acute myeloid leukemia cell line LT12 and the resistant lines L1210/mdr and LT12/mdr. The murine cell line P388 (methylcholanthrene-induced lymphoid neoplasm) and doxorubicin-resistant P388 were also included as test systems.
(§3) The test results are summarized in Table 2 below: • XTT proliferation assay, EC50 in μg/ml

resistant line LT12/mdr = experiment: XTT proliferation assay, LT12/mdr; format: cell-based; details: Rattus norvegicus, LT12mdr
From the text: as §1, §2, §3

murine cell line L1210 = experiment: XTT proliferation assay, L1210; format: cell-based; details: Mus musculus
From the text: as §1, §2, §3

[3] = test system: resistant line L1210/mdr (L1210VCR); experiment: XTT proliferation assay, L1210VCR; format: cell-based, murine; details: Mus musculus
From the text: as §1, §2, §3

murine cell line P388 = experiment: XTT proliferation assay, P388; format: cell-based; details: Mus musculus
From the text: as §1, §2, §3

[4] = test system: doxorubicin-resistant P388; experiment: XTT proliferation assay, P388ADR; format: cell-based, murine; details: Mus musculus
From the text: as §1, §2, §3

KB/HeLa cells = experiment: Cell cycle analysis (G2/M arrest); format: cell-based; details: Homo sapiens, 24 hours, 37° C., read-out: EC50 (50% of cells in G2/M)
Experimental: For the cell cycle analysis, KB/HeLa cells were treated with different concentrations of the test substances (0.1–1000 nM) at 37° C. for 24 hours.
The percentage of cells arrested in the G2/M phase of the cell cycle after having been treated with reference substances or selected test substances is shown in Table 4 below. The results were analyzed using special analytical software (ModFit™).

[5] = target: human DNA topoisomerase II (Homo sapiens, UniProt P11388); experiment: kDNA assay for testing topoisomerase II activity; format: biochemical; details: compound 1 at 100, 31.6 and 10 μM; reference compounds 100 μM
human DNA topoisomerase II, sequence (P11388 whole entry): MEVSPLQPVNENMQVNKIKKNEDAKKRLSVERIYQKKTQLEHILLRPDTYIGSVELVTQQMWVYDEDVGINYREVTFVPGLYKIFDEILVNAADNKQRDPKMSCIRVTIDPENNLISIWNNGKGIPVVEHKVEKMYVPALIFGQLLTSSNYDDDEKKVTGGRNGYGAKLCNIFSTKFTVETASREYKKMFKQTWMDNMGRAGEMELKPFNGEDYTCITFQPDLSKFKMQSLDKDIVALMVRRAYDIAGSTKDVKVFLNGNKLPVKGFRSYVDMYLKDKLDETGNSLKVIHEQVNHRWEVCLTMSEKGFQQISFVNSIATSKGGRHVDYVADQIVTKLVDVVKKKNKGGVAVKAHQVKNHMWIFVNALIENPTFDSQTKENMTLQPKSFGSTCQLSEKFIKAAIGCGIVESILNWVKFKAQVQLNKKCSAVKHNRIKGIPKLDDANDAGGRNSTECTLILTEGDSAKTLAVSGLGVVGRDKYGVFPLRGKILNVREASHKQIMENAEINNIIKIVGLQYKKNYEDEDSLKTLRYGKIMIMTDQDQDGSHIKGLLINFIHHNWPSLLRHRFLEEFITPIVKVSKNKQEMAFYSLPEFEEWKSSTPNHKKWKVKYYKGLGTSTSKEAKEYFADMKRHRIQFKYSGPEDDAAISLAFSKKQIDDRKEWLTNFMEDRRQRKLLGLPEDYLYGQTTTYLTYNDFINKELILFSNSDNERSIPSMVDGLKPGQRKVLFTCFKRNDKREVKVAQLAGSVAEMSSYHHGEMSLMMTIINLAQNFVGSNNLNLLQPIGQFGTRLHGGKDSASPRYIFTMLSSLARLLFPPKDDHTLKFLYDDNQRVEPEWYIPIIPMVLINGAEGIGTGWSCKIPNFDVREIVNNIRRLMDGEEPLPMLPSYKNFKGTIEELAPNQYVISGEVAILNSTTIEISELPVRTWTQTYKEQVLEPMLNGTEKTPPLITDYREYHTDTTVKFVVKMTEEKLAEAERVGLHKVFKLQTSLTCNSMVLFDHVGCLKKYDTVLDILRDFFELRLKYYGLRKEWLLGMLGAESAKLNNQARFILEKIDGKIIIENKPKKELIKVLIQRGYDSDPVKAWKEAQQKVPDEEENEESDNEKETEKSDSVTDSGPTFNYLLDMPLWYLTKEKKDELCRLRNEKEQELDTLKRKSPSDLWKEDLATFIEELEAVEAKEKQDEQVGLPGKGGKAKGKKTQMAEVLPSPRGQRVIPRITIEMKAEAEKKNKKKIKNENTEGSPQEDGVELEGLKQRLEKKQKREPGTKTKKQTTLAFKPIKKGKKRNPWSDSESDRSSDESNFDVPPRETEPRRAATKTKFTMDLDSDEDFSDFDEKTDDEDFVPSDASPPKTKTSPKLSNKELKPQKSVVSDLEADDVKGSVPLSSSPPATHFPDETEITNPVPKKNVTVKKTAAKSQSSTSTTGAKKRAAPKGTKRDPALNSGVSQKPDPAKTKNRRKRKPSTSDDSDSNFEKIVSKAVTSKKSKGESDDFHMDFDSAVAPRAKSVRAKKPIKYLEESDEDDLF
Experimental: In this assay, which was described by P. Arimondo (Anti-Cancer Drug Design 2000, 15(6), 413–421), kDNA is treated with human DNA topoisomerase II in the absence or presence of the test compounds. In the assay, compound 1 according to the invention was tested at three different concentrations (100, 31.6 and 10 μM). A positive control and the reference compounds m-amsacrine (m-amsa), paclitaxel (Taxol) and vincristine, with the concentration in each case being 100 μM, were used for comparison.
2 μL of 10× assay buffer, 1 μL of kDNA (200 ng), 0.5 μL of human topoisomerase II (1 unit) and 15.5 μL of H2O are added by pipette to 1 μL of initially introduced test substance (20 times concentrated in 100% DMSO) and the reagents are mixed.
The reaction assay samples are placed in a heating block which has been preheated to 37° C. and incubated at 37° C. for 10 min. The incubation is stopped after adding 4 μL of 5× Stop buffer and the substance is subsequently extracted with CIA. After that, 20 μL of the supernatant are loaded onto a 1% agarose gel containing 0.25 μg of ethidium bromide/mL and separated at 100 V for 1 h. Finally, the gel is photographed under UV excitation (see FIG. 1). The inhibition of the decatenation of kDNA is quantified using the GelPro® Analyzer Software (see FIG. 2).

human topoisomerase II = human topoisomerase II (Homo sapiens, UniProt P11388); experiment: pRYG relaxation assay for testing topoisomerase II activity; format: biochemical; details: compound 1 at 100, 31.6 and 10 μM; reference compounds 316 and 100 μM
human topoisomerase II, sequence (P11388 whole entry): as above
Experimental: In the assay, the compound 1 according to the invention was tested at three different concentrations (100, 31.6 and 10 μM). The reference compounds m-amsacrine, paclitaxel (Taxol) and vincristine were used, at concentrations of 316 and 100 μM, for comparison.
2 μL of 10× assay buffer, 0.5 μL of pRYG DNA (125 ng), 0.5 μL of human topoisomerase II (1 unit) and 16 μL of H2O are added by pipette to 1 μL of initially introduced test substance (20 times concentrated in 100% DMSO) and the reagents are mixed. The reaction assay samples are placed in a heating block which has been preheated to 37° C. and incubated at 37° C. for 30 min. The incubation is stopped after adding 4 μL of 5× Stop buffer. After that, 10 μL of the assay sample are loaded onto a 1.2% agarose gel containing 0.25 μg of ethidium bromide/mL and separated at 100 V for 2.5 h. Finally, the gel is photographed under UV excitation (see FIG. 3). The inhibition of pRYG relaxation is quantified using the GelPro® Analyzer Software (see FIG. 4).

| SMILES | solubility [1] | inhibitory effect on tubulin polymerization (in words) (bovine tubulin) | EC50 [2] | EC50 (resistant line LT12/mdr) | EC50 (murine cell line L1210) | EC50 [3] | EC50 (murine cell line P388) | EC50 [4] | also measured |
| --- | --- | --- | --- | --- | --- | --- | --- | --- | --- |
| CC(=O)N(C(=O)C(=O)c1cn(Cc2ccc(Cl)cc2)c2ccccc12)c1ccc2ncccc2c1 [Compound 2, N-{2-[1-(4-chlorobenzyl)-1H-indol-3-yl]-2-oxoacetyl}-N-quinolin-6-ylacetamide] | 28.5 µg/mL (≈ 59.1 µM) | – | – | – | – | – | – | – | nucleosomes in the cell culture supernatant (U-937 cell line): not possible to demonstrate any significant increase; nucleosomes in the cell lysate (U-937 cell line): concentration-dependent increase of nucleosomes in the cell lysate; Deaths n (dead animals / total number) (melanoma, MEXF-462; MEXF462, 80 mg/kg p.o.): 0/6 mice; remission of the tumors (melanoma, MEXF-462; MEXF462, 80 mg/kg p.o., 6 animals): complete remission of the tumors in the treated animals; Optimum T/C % (day) (melanoma, MEXF-462; MEXF462, 80 mg/kg p.o., day 18): 0.0% (18); tolerability (in words) (melanoma, MEXF-462): very well tolerated (no deaths); Deaths n (dead animals / total number) (mammary gland, MAXF857; MAXF857, 80 mg/kg p.o.): 0/6 mice; Optimum T/C % (day) (mammary gland, MAXF857; MAXF857, 80 mg/kg p.o., day 10): 9.6% (10) |
| O=C(Nc1ccc2[nH]ncc2c1)C(=O)c1cn(Cc2ccc(Cl)cc2)c2ccccc12 [Compound 4, 2-[1-(4-chlorobenzyl)-1H-indol-3-yl]-N-(1H-indazol-5-yl)-2-oxoacetamide] | – | very potent inhibitory effect | – | – | – | – | – | – | melting point: 203 °C |
| O=C1c2c(O)ccc(O)c2C(=O)c2c(NCCNCCO)ccc(NCCNCCO)c21 [Mitoxantrone, mitoxantrone] | – | – | 0.006 mg/L (≈ 0.0135 µM) | 3.1 mg/L (≈ 6.97 µM) | 0.09 mg/L (≈ 0.202 µM) | 2.1 mg/L (≈ 4.72 µM) | 0.053 mg/L (≈ 0.119 µM) | 0.608 mg/L (≈ 1.37 µM) | EC50 (KB/HeLa cells): 0.0253 µM |
| O=C(Nc1ccncc1)C(=O)c1cn(Cc2ccc(Cl)cc2)c2ccccc12 [Compound 14, 2-[1-(4-chlorobenzyl)-1H-indol-3-yl]-2-oxo-N-pyridin-4-ylacetamide] | 0.35 µg/mL (≈ 0.898 µM) | – | – | – | – | – | – | – | Deaths n (dead animals / total number) (melanoma, MEXF-462; MEXF462, 16 mg/kg p.o.): 3/5 mice; Deaths n (dead animals / total number) (melanoma, MEXF-462; MEXF462, 32 mg/kg p.o.): 3/5 mice; tolerability (in words) (melanoma, MEXF-462): less well tolerated |
| COc1cc([C@@H]2c3cc4c(cc3[C@@H](O[C@@H]3O[C@@H]5CO[C@@H](C)O[C@H]5[C@H](O)[C@H]3O)[C@H]3COC(=O)[C@H]23)OCO4)cc(OC)c1O [Etoposide, etoposide] | – | – | 0.094 mg/L (≈ 0.16 µM) | > 3.6 mg/L | 0.269 mg/L (≈ 0.457 µM) | > 3.16 mg/L | 0.202 mg/L (≈ 0.343 µM) | > 3.16 mg/L | – |
| COc1cccc2c1C(=O)c1c(O)c3c(c(O)c1C2=O)C[C@@](O)(C(=O)CO)C[C@@H]3O[C@H]1C[C@H](N)[C@H](O)[C@H](C)O1 [Doxorubicin, doxorubicin] | – | – | 0.029 mg/L (≈ 0.0534 µM) | > 3.16 mg/L | 0.269 mg/L (≈ 0.495 µM) | > 3.16 mg/L | 0.204 mg/L (≈ 0.375 µM) | > 3.16 mg/L | – |
| O=C(Nc1cccc2cccnc12)C(=O)c1cn(Cc2ccc(Cl)cc2)c2ccccc12 [Compound 12, 2-[1-(4-chlorobenzyl)-1H-indol-3-yl]-2-oxo-N-quinolin-8-ylacetamide] | – | do not exert any effect | – | – | – | – | – | – | melting point: 178 °C |
| O=C(Nc1cnc2nccnc2c1)C(=O)c1cn(Cc2ccc(Cl)cc2)c2ccccc12 [Compound 1, 2-[1-(4-chlorobenzyl)-1H-indol-3-yl]-2-oxo-N-pyrido[2,3-b]pyrazin-7-ylacetamide] | 25 µg/mL (≈ 56.6 µM) | very potent inhibitory effect | – | – | – | – | – | – | inhibition of topoisomerase II, kDNA decatenation [5]: significantly inhibit topoisomerase II; inhibition of topoisomerase II, pRYG DNA relaxation (human topoisomerase II): significantly inhibit topoisomerase II; nucleosomes in the cell culture supernatant (U-937 cell line): not possible to demonstrate any significant increase; nucleosomes in the cell lysate (U-937 cell line): concentration-dependent increase of nucleosomes in the cell lysate |
| CC[C@]1(O)C[C@H]2CN(CCc3c([nH]c4ccccc34)[C@@](C(=O)OC)(c3cc4c(cc3OC)N(C=O)[C@H]3[C@@](O)(C(=O)OC)[C@H](OC(C)=O)[C@]5(CC)C=CCN6CC[C@]43[C@@H]65)C2)C1 [Vincristine, vincristine] | – | – | 0.002 mg/L (≈ 0.00242 µM) | 0.134 mg/L (≈ 0.162 µM) | 0.015 mg/L (≈ 0.0182 µM) | > 3.16 mg/L | 0.004 mg/L (≈ 0.00485 µM) | 0.93 mg/L (≈ 1.13 µM) | inhibition of topoisomerase II, kDNA decatenation [5]: neither paclitaxel nor vincristine was observed to have any inhibitory effects; inhibition of topoisomerase II, pRYG DNA relaxation (human topoisomerase II): neither paclitaxel nor vincristine was observed to have any inhibitory effects |
| O=C(Nc1ccc2ncccc2c1)C(=O)c1cn(Cc2ccc(Cl)cc2)c2ccccc12 [Compound 10, 2-[1-(4-chlorobenzyl)-1H-indol-3-yl]-2-oxo-N-quinolin-6-ylacetamide] | 0.038 µg/mL (≈ 0.0864 µM) | – | – | – | – | – | – | – | Deaths n (dead animals / total number) (melanoma, MEXF-462; MEXF462, 55 mg/kg p.o.): 2/6 mice; Deaths n (dead animals / total number) (melanoma, MEXF-462; MEXF462, 70 mg/kg p.o.): 5/6 mice; tolerability (in words) (melanoma, MEXF-462): less well tolerated; Deaths n (dead animals / total number) (mammary gland, MAXF857; MAXF857, 40 mg/kg p.o.): 2/6 and 2/6 mice; tolerability (in words) (mammary gland, MAXF857; MAXF857 xenograft, p.o.): substantially less well tolerated than 2 |
| Cc1ccc2cccc(NC(=O)C(=O)c3cn(Cc4ccc(F)cc4)c4ccccc34)c2n1 [Compound 15, 2-[1-(4-fluorobenzyl)-1H-indol-3-yl]-N-(2-methylquinolin-8-yl)-2-oxoacetamide] | – | do not exert any effect | – | – | – | – | – | – | melting point: 200 to 202 °C |
| Cc1ccc2cc(NC(=O)C(=O)c3cn(Cc4ccc(Cl)cc4)c4ccccc34)ccc2n1 [Compound 9, 2-[1-(4-chlorobenzyl)-1H-indol-3-yl]-N-(2-methylquinolin-6-yl)-2-oxoacetamide] | – | very potent inhibitory effect | – | – | – | – | – | – | – |

Reference: patent US7205299B2, “Indole derivatives having an apoptosis-inducing effect” (Zentaris GmbH, priority 2003, dated 2007)
